In US12338229B2, “Small molecule stimulators of steroid receptor coactivator-3 and methods of their use as cardioprotective and/or vascular regenerative agents” (BAYLOR COLLEGE OF MEDICINE, priority 2018, dated 2025):

How the values were obtained:
[1] = test system: SRC-1, SRC-2 or SRC-3 fused with the DNA binding domain of Gal4; assay: Gal4 luciferase reporter (pG5-luc / pBIND-SRC) in HeLa cells; assay type: cell-based; conditions: pG5-luc + pBIND-SRC-1, -2 or -3
Description: The compounds described herein stimulate SRC intrinsic transcriptional activity. HeLa cells transfected with a Gal4 responsive luciferase reporter (pG5-luc) and a construct encoding SRC-1, SRC-2 or SRC-3 fused with the DNA binding domain of Gal4 (pBIND-SRC-1, pBIND-SRC-2 or pBIND-SRC-3) were exposed to treatments with compounds as described herein, including MCB-613, Compound 10-1, and Compound 10-2.

[2] = test system: chorioallantoic membrane (CAM) of chicken eggs; assay: Chick egg CAM angiogenesis assay, topical drug; assay type: in vivo; conditions: 0.6 μM applied directly to chick eggs
Description: Angiogenesis assay for small molecule stimulator treatments. Five to seven day old specific-pathogen-free (SPF) certified fertilized chicken eggs (white leghorn) were used to access the chorioallantoic membrane (CAM). The total vessel area on the CAM was measured using images obtained prior to application of the drug. MCB-613 (100 μL) at a concentration of 0.6 μM was topically applied onto the surface of the CAM. The vessel area on the CAM was monitored on a daily basis following daily application of the drug. Vehicle controls were maintained throughout the experiment. Treatments were continued for four days at the end of which an image thresholding method (ImageJ) was used to quantify total vessel area on the CAM. Percent growth in vessel area was compared for control and treated eggs. n=6 eggs per condition. This experiment was repeated three times.

[3] = test system: chorioallantoic membrane (CAM) of chicken eggs; assay: CAM angiogenesis assay with drug treated mouse embryonic fibroblasts; assay type: in vivo; conditions: MEFs pre-treated with 0.6 μM for 24 hours
Description: Angiogenesis Assay with drug treated mouse embryonic fibroblasts (MEFs). Five to seven day old SPF certified fertilized chicken eggs (white leghorn) were used to access the chorioallantoic membrane (CAM). Mouse embryonic fibroblasts (MEFs) were treated with 0.6 μM MCB-613 for 24 hours. Post treatment, two million MEFs were suspended in 60 μL of PBS containing magnesium and calcium and 40 μL of Matrigel (2M/egg) (Corning Inc.; Corning, NY). The MEFs were then mixed well by pipetting and transferred to the surface of the CAM. The vessel area on the CAM was monitored on a daily basis. Vehicle controls were maintained throughout the experiment. MEFs were allowed to grow on the CAM surface for four days at the end of which an image thresholding method (ImageJ) was used to quantify total vessel area on the CAM. Percent growth in vessel area was then compared across control and treated eggs (MEF treated versus untreated). n=6 eggs per condition.

[4] = test system: mice after myocardial infarction; assay: Progressive maximal exercise test, indirect calorimetry (VO2, VCO2); assay type: in vivo; conditions: three weeks post-MI
Description: RER, VO2 and VCO2 measurements. Respiratory exchange ratio (RER), oxygen consumption (VO^2) and carbon dioxide expiration (VCO2) were measured by indirect calorimetry using a progressive maximal exercise test until mice reached exhaustion.
RER, VO2 and VCO2 measurements. RER, VO2 and VCO2 were measured by indirect calorimetry using a progressive maximal exercise test until mice reached exhaustion.

[5] = Toxicity profile in vitro and in vivo
[6] = test system: mouse hearts after myocardial infarction; assay: Metabolomic profiling of hearts post-MI; assay type: in vivo, mice
Description: Metabolomic profiling. Hearts from 4 control and 4 MCB-613-treated mice were isolated 24 hours post-MI, perfused with 10 mM KCl, snap frozen in liquid nitrogen and stored at −80° C. 10 mgs of tissue was analyzed for fatty acids and carnitines normalized to 3 normal liver control samples. Fatty acids were normalized by Internal Standard L-Tryptophan and carnitines normalized by Internal Standard L-Zeatine.

cardiac immune cells = assay: Flow cytometry cardiac immune phenotyping post-MI; assay type: in vivo, mice; conditions: 24 hours post-MI, vs control
Description: Flow Cytometry and Cardiac Immune Phenotyping. Hearts and spleens isolated from control and MCB-613 treated mice 24 hours post-MI or post-sham surgery were digested in digestion buffer: 500 μL of DNAse I (10 mg/ml), 500 μl Collagenase II (50 mg/ml) into 4 ml (enough for approx. 12 spleens @ 1x) RPMI 1640. Cells were placed on a GentleMacs dissociator and run on “IMPC_step2” twice and incubated at 25° C. for 15 minutes. The “IMPC_step2” program was repeated and the samples were incubated at 25° C. an additional 15 minutes followed by another round of the “IMPC_step2” program. Then, 400 μL of 4° C. Stopping Buffer (1x PBS, 0.1M EDTA) was added to each sample and centrifuged at ˜100 g for one second to collect liquid at the bottom of tube. Samples were filtered through mesh filter caps into 50 mL conical tubes. The tubes were then washed with 1 mL FACs buffer which was also then passed through the filter. Heart preps were more viscous and were washed with 20 mL cold filtered saline. Samples were centrifuged at 500 g for 6 minutes. Supernatant was discarded and the pellet suspended in 1 mL 4° C. FACS buffer. Following red blood cell (RBC) lysis and blocking, single cell suspensions were stained with an immune cell panel and quantified using an LSR II flow cytometer. Then, 500,000 live events were counted for spleen controls and the entire tube of heart cells was recorded and analyzed.

[7] = test system: mice after myocardial infarction; assay: Myocardial infarction model, permanent LAD ligation (echocardiography, histology, immunostaining, PET, EM); assay type: in vivo, ICR (CD1) mice; conditions: repeat injections three days at weeks 8 and 16
[8] = Pharmacokinetics in CD-1 mice (plasma, HPLC-MS/MS)
Description: Each of the three compounds was dissolved in DMSO (20 mg/mL), mixed with 30% hydroxypropyl-β-cyclodextrin at a 1:9 ratio, and administered to the CD-1 mice intraperitoneally (ip) or orally (po) through a gavage. After compound administration, blood samples (3 mice per compound) were collected at nine time points, i.e., at 5 minutes, 0.25 hours, 0.5 hours, 1 hour, 2 hours, 4 hours, 8 hours, 12 hours, and 24 hours, through the tail vein. Plasma was isolated from these blood samples and the compound plasma concentrations were determined by HPLC-MS/MS. Pharmacokinetic parameters were calculated using the program PKSolver, an add-in program for use in analyzing pharmacokinetic and pharmacodynamics data analysis, as described in Zhang et al., Computer Methods and Programs in Biomedicine, 99: 306-314 (2010).

## CCC1C/C(=C\c2cccnc2)C(=O)/C(=C/c2cccnc2)C1 (stereo not drawn) [MCB-613]
[1]
  intrinsic transcriptional activity of SRCs (luciferase): selectively stimulates the intrinsic transcriptional activity of SRCs
[2]
  angiogenesis (vessel area on CAM): stimulated angiogenesis in vivo
[3]
  angiogenesis (vessel area on CAM): promoted robust angiogenesis
[4]
  VCO2 and VO2 during exercise: VCO2 and VO2 are elevated
[5]
  toxicity profile: low toxicity profile in vitro and in vivo
[6]; mouse hearts 24 hours post-MI
  cardioprotective carnitine metabolites: increases cardioprotective carnitine metabolites
  β-oxidation of long-chain fatty acids: increases β-oxidation of long-chain fatty acids
[6]; mouse hearts post-MI
  methylglutaryl carnitine: decreases methylglutaryl carnitine
Cardiac immune cells
  composition of cardiac immune cells (FACS): significant decrease in B cells, a trend for decreased monocytes and no change in the fraction of granulocytes
[7]
  effect of repeat injections on ejection fraction: did not alter ejection fractions
[8]; intraperitoneal
  AUC(0-inf): 129.6 ng·h/mL
  AUC(0-t): 122.2 ng·h/mL
  Cl: 6.4 (mg)/(ng/mL)/h
  Cmax: 49.2 ng/mL
  Terminal phase t1/2: 390 min
  Tmax: 4.8 min
  t1/2: 51.6 min
[8]; oral (gavage)
  AUC(0-inf): 24.3 ng·h/mL
  AUC(0-t): 15.7 ng·h/mL
  Cl: 34 (mg)/(ng/mL)/h
  Cmax: 5.6 ng/mL
  Terminal phase t1/2: 966 min
  Tmax: 15 min
  t1/2: 56.4 min
